Series [1] is described as follows: finding of effectiveness in retarding and reducing cachexia. Particulars: benzaldehyde and/or 4,6-O-benzylidene-D-glucose. It counts as in vivo.
The conditions of series [2]: Japanese Patent Laid-Open 108027/1977 and 70428/1979; cited from earlier work.
A short description of series [3]: Clinical Example 3: treatment of cachexia patient with benzaldehyde. In kind it is in vivo, human. The note with it: for Precipitation of Blood: before dosage 78; for Glutamic Acid Pyruvic Acid Transaminase (GPT): before dosage 98; for Glutamic Acid Oxaloacetic Acid Transaminase (GOT): before dosage 120; for α-fetoprotein (AFP): before dosage 20,000. The source says:
Patient
Diagnosis: Symptoms of cachexia due to lung cancer (the type of cancerous tissue not being specified)
Through CT scan and echo examinations, a total of four tumors were observed, one having the dimensions of 7 cm×7 cm and each of the other three metastasized tumors having a diameter of about 1 cm. Severe symptoms due to cachexia were found.
First Day: The symptoms due to cachexia were growing worse.

A short description of series [4]: acute toxicity (LD50) by subcutaneous injection of rats. Particulars: rat, in vivo, sc.
For series [5], the system named is rats. The description is as above. Particulars: acute toxicity, rats, subcutaneous injection.
Series [6] can be described thus: prior chemotherapy of the patient of Clinical Example 1, adverse reactions. Particulars: chemotherapy with mitomycin, 5-fluorouracil and cytarabine together, stopped after three weeks.
Source text: (§1) Chemotherapy was tried to administering mitomycin, 5-fluorouracil and cytarabine. […] For these reasons, chemotherapy was stopped after three weeks.
The conditions of series [7]: human, in vivo.
Source text: as §1
The nature of series [8]: in vivo. The note with it: rat, sc.
The nature of series [9]: Clinical Example 1: treatment of cachexia patient with 4,6-O-benzylidene-D-glucose. In kind it is in vivo, human. The note with it: 1,200 mg i.v. once a day; for body weight: before: 29 kg. The source says:
Patient
Diagnosis: Cancer in right ovary, Cachexia caused by metastasis of cancer to peritoneum and liver
Although the adbomen of the patient was opened by an abdominal operation, it was impossible to remove the diseased portions and thus the abdomen was closed without extracting the affected portions. The patient could eat very little and thus was supplied with nutritive substances by instillations every day. The body weight of the patient decreased to 29 kg, and they were confined to bed.

The mark [10] stands for this setting: 25 mg tablets, 5 tablets 4 times a day, three months.

Where two headings read alike, the source gives them in different places.

As for `O=Cc1ccccc1` [Benzaldehyde], the effect on cachexia entry in series [1] is “effective in retarding and reducing cachexia”. For the same compound, in series [2], the carcinostatic function entry is given as “exhibit carcinostatic functions”. For the same compound, the appetite entry in [3] (25 mg benzaldehyde tablets, 5 tablets 4 times a day, one month) is on record as “the patient recovered their appetite”. Besides, the “values of AFP, GOT and GPT” value in series [3] (25 mg tablets, 5 tablets 4 times a day, monthly) was “lowered favorably every month unitl they reached normal levels”. In addition, the “body weight” value is “began to increase” in [3] (setting [10]); 46 kg in series [3] (one month dosage, before dosage 46); 47 kg in series [3] (three month dosage, before dosage 46); 46 kg in series [3] (two month dosage, before dosage 46). The “symptoms due to cachexia” value in series [3] (setting [10]) is given as “Almost all of the symptoms due to cachexia disappeared”. The “Precipitation of Blood” value in series [3] (one month dosage) is recorded as 60; in series [3] (three month dosage), 40; in [3] (two month dosage), 48. Also, the entries for the “Glutamic Acid Pyruvic Acid Transaminase (GPT)” value in series [3] (one month dosage), in series [3] (three month dosage) and in series [3] (two month dosage) were 70, 35 and 40, respectively. Besides, the “Glutamic Acid Oxaloacetic Acid Transaminase (GOT)” value in series [3] (one month dosage) was found to be 87; in [3] (three month dosage) it was 38; in [3] (two month dosage) it was 72. In addition, the results for the “α-fetoprotein (AFP)” value in series [3] (one month dosage), in series [3] (three month dosage) and in [3] (two month dosage) were 15,000 ng/ml, 2,200 ng/ml and 7,700 ng/ml, respectively. The 50% lethal dose (LD50) (as a rule, the dose at which mortality reaches 50%) in series [4] is 5000 mg/kg. Also, the “toxicity” value in [5] is “extremely low toxicities”.

`Nc1ccn([C@@H]2O[C@H](CO)[C@@H](O)[C@@H]2O)c(=O)n1` [cytarabine]: in series [6], the adverse reactions result was “intensive adverse reactions, such as anorexia, nausea and Leukopenia”; the cachexia under chemotherapy result was “the cachexia grew worse and worse”.

For the compound `O=c1[nH]cc(F)c(=O)[nH]1` [5-fluorouracil], the adverse reactions entry in series [7] is “intensive adverse reactions, such as anorexia, nausea and Leukopenia”. The cachexia under chemotherapy result in series [6] is “the cachexia grew worse and worse”.

Turning to `CO[C@@]12[C@H](COC(N)=O)C3=C(C(=O)C(C)=C(N)C3=O)N1C[C@@H]1N[C@@H]12` [mitomycin], in [6], the adverse reactions result is “intensive adverse reactions, such as anorexia, nausea and Leukopenia”; the cachexia under chemotherapy result is “the cachexia grew worse and worse”.

As to `OC1O[C@@H]2COC(c3ccccc3)O[C@H]2[C@H](O)[C@H]1O` (stereo partly drawn) [4,6-O-Benzylidene-D-glucose, 4,6-O-benzylidene-D-glucose], the effect on cachexia entry in [1] was “effective in retarding and reducing cachexia”. The carcinostatic function entry in series [2] is “exhibit carcinostatic functions”. The LD50 in series [8] was found to be 4000 mg/kg. The “toxicity” value in series [5] is on record as “extremely low toxicities”. Further, the nausea entry in series [9] (eighth day) is on record as “Nausea disappeared”. Besides, the food intake result in series [9] (eighth day, before: could eat very little) is recorded as “the patient could take meals”. Also, the body weight in series [9] (eighty-fifth day) came to 35 kg. Besides, in [9] (fifty-sixth day), the “cancer in other portions” value is given as “No change was observed”, the “cancer of the liver (left)” value was “slightly reduced”, the capability of work entry is “capable of doing light work” and the symptoms of cachexia result is on record as “disappeared completely”. In addition, in [9] (fifty-sixth day), the body weight is 31 kg. In addition, in series [9] (nineteenth day, before: confined to bed), the mobility entry is “The patient could sit up in bed”. Besides, in [9] (thirtieth day), the cachexia symptoms entry was “cachexia symptoms were alleviated” and the mobility entry is on record as “the patient could walk”. Further, the “dimensions of the tumor” value in series [9] (thirtieth day, CT scan) is recorded as “the dimensions of the tumor had not been reduced”.

The values are drawn from patent US4778785A, “Pharmaceutical composition for retarding and reducing cachexia” (Kaken Pharmaceutical Co., Ltd., priority 1985, dated 1988).
